Earlier results as cited in patent publication US20110117194A1, “PHARMACEUTICAL FORMULATION CONTAINING ANGIOTENSIN-II RECEPTOR BLOCKER” (priority 2008, published 2011).

CCCCc1nc(Cl)c(CO)n1Cc1ccc(-c2ccccc2-c2nn[nH]n2)cc1 [losartan]
time to peak blood concentration (active losartan molecule released into blood): ≤ 1 h
plasma clearance rate (in vivo): 600 mL/min
